# Where a SMILES comes first, the peptide text is derived from it. [ ]: non-standard residue; d: D form. Cha = N[C@@H](CC1CCCCC1)C(=O)O; Chg = N[C@H](C(=O)O)C1CCCCC1; Tle = CC(C)(C)[C@H](N)C(=O)O; dDab = NCC[C@@H](N)C(=O)O; Orn = NCCC[C@H](N)C(=O)O; Dab = NCC[C@H](N)C(=O)O
# Test system: human red blood cells (hRBC)
# Type: cell-based
# Conditions: red cells of human, 1 h
# Procedure, shortened: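 Compounds at 100 μg/ml incubated with 20% (v/v) washed human erythrocytes (~0.9×10^9 cells/ml final) for 1 h at 37° C with shaking. Supernatant OD540 read after 8-fold dilution; % hemolysis = OD540 sample / OD540 of 2.5% Triton X-100 lysis × 100, with PBS/0.001% acetic acid as 0%.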
row,SMILES,Hemolysis at 100 μg/ml [%]
1,"CC(C)C[C@@H]1NC(=O)[C@@H]2CCCN2C(=O)[C@H]2CCCN2C(=O)[C@H](CO)NC(=O)[C@H](C)NC(=O)[C@H](C2CCCCC2)NC(=O)[C@H](CCN)NC(=O)[C@H](Cc2c[nH]c3ccccc23)NC(=O)[C@H](CCN)NC(=O)[C@@H](CCN)NC(=O)[C@H](CCCN)NC(=O)[C@H](CCN)NC(=O)[C@H](C(C)(C)C)NC(=O)[C@H](Cc2c[nH]c3ccccc23)NC1=O [compound 34, cyclo(-Leu-Trp-tBuGly-Dab-Orn-^DDab-Dab-Trp-Dab-Chg-Ala-Ser-^DPro-Pro-)] (cyclo(LW[Tle][Dab][Orn][dDab][Dab]W[Dab][Chg]AS[dP]P))",1
2,"CC[C@H](C)[C@@H]1NC(=O)[C@@H]2CCCN2C(=O)[C@H]2CCCN2C(=O)[C@H](CO)NC(=O)[C@H](C)NC(=O)[C@H](CC2CCCCC2)NC(=O)[C@H](CCN)NC(=O)[C@H](Cc2c[nH]c3ccccc23)NC(=O)[C@H](CCN)NC(=O)[C@@H](CCN)NC(=O)[C@H](CCCCN)NC(=O)[C@H](CCN)NC(=O)[C@H](C(C)(C)C)NC(=O)[C@H](Cc2c[nH]c3ccccc23)NC1=O [compound 35, cyclo(-Ile-Trp-tBuGly-Dab-Lys-^DDab-Dab-Trp-Dab-Cha-Ala-Ser-^DPro-Pro-)] (cyclo(IW[Tle][Dab]K[dDab][Dab]W[Dab][Cha]AS[dP]P))",1
3,"CC(C)C[C@@H]1NC(=O)[C@@H]2CCCN2C(=O)[C@H]2CCCN2C(=O)[C@H](CO)NC(=O)[C@H](CO)NC(=O)[C@H](C2CCCCC2)NC(=O)[C@H](CCN)NC(=O)[C@H](Cc2c[nH]c3ccccc23)NC(=O)[C@H](CCN)NC(=O)[C@@H](CCN)NC(=O)[C@H](CCCN)NC(=O)[C@H](CCN)NC(=O)[C@H](C(C)(C)C)NC(=O)[C@H](Cc2c[nH]c3ccccc23)NC1=O [compound 36, cyclo(-Leu-Trp-tBuGly-Dab-Orn-^DDab-Dab-Trp-Dab-Chg-Ser-Ser-^DPro-Pro-)] (cyclo(LW[Tle][Dab][Orn][dDab][Dab]W[Dab][Chg]SS[dP]P))",1
4,"CC(C)C[C@@H]1NC(=O)[C@@H]2CCCN2C(=O)[C@H]2CCCN2C(=O)[C@H](CO)NC(=O)[C@H](CO)NC(=O)[C@H](C(C)(C)C)NC(=O)[C@H](CCN)NC(=O)[C@H](Cc2c[nH]c3ccccc23)NC(=O)[C@H](CCN)NC(=O)[C@@H](CCN)NC(=O)[C@H](CCCN)NC(=O)[C@H](CCN)NC(=O)[C@H](CC2CCCCC2)NC(=O)[C@H](Cc2c[nH]c3ccccc23)NC1=O [compound 37, cyclo(-Leu-Trp-Cha-Dab-Orn-^DDab-Dab-Trp-Dab-tBuGly-Ser-Ser-^DPro-Pro-)] (cyclo(LW[Cha][Dab][Orn][dDab][Dab]W[Dab][Tle]SS[dP]P))",1
5,"CC(C)C[C@@H]1NC(=O)[C@@H]2CCCN2C(=O)[C@H]2CCCN2C(=O)[C@H](CO)NC(=O)[C@H](Cc2ccc(O)cc2)NC(=O)[C@H](C(C)(C)C)NC(=O)[C@H](CCN)NC(=O)[C@H](Cc2c[nH]c3ccccc23)NC(=O)[C@H](CCN)NC(=O)[C@@H](CCN)NC(=O)[C@H](CCCN)NC(=O)[C@H](CCN)NC(=O)[C@H](Cc2ccc(O)cc2)NC(=O)[C@H](Cc2ccc(O)cc2)NC1=O [compound 38, cyclo(-Leu-Tyr-Tyr-Dab-Orn-^DDab-Dab-Trp-Dab-tBuGly-Tyr-Ser-^DPro-Pro-)] (cyclo(LYY[Dab][Orn][dDab][Dab]W[Dab][Tle]YS[dP]P))",0
